The text below walks through data of patent US20250018049A1, “COMPOUNDS FOR DEGRADING CYCLIN-DEPENDENT KINASE 2 VIA UBIQUITIN PROTEOSOME PATHWAY” (NIKANG THERAPEUTICS, INC., priority 2020, published 2025).

As usually defined, the IC50 is the point on the concentration scale where inhibition reaches its midpoint. The low end stands for higher potency, the high end for lower potency.

For assay [1], the target named is T1, CDK2 (Homo sapiens, UniProt P24941). Kind of assay: NanoBRET CDK2 engagement assay. The assay is classed as cell-based. On the set-up: expressed in transfected cells. To be noted: OVCAR3 cells with stable CDK2-Luciferase vector, 24 hours treatment. The method, then:
OVCAR3 cells with stable transfection of CDK2-Luciferase vector were seeded into 96-well plate at a density of 20,000 cells per well, 50 μL Opti-MEM medium supplemented with 1% FBS. Following morning, cells were treated with compounds of the disclosure, with starting concentration at 3 μM and ½ log dilution down to 0.3 nM for 24 hours at 37° C. DMSO treatment serves as control. Compound engagement was then measured using NanoBRE™ Kinase Kit from Promega (Part Number: CS1810C122, NanoBRET™ TE Kinase Kit #10, 1K) following manufacturer's instruction. For 24 hours treatment, tracer was added only for the last 2 hours. Briefly, 2.5 μL of complete 20× NanoBRET Tracer was added to the cells in suspension. Immediately prior to BRET measurements, prepare 3× Complete NanoBRET® Nano-Glo® Substrate in Opti-MEM without serum and phenol red. Without any delay, 25 μL per well of 3× Complete NanoBRET™ Nano-Glo® Substrate for a 96-well plate was added and mixed well. Signal was then read on a CLARIOstar® plate reader (measure donor emission (e.g., 450 nm) and acceptor emission (e.g., 610 nm or 630 nm) using a NanoBRET™-compatible luminometer. Target engagement was calculated with DMSO treatment as 100% signal, and IC50 was calculated by GraphPad Prism 9.

The target in assay [2] is T1, CDK2. Briefly: Phospho-Rb HTRF measurement in OVCAR3 cells (inhibition of CDK2). The assay is classed as cell-based. On the set-up: High-Throughput Measurement of Cellular Endogenous CDK2; endogenous in cells; host or cells: OVCAR3. Conditions: pRB(S807/811) assay, 24 h compound treatment. The method, then: Phosphorylation of RB protein at S780 and S807/811 were measured using HTRF phospho-RB cellular kits (Cat #64RBS780PEG and 64RBS807PEG) from Cisbio.
On Day 1, OVCAR3 or KYSE520 cells were seeded into 96-well tissue-culture treated plates at 20,000 cells/well in 200 μL and incubated overnight at 37° C. in CO2 atmosphere. On Day 2, the cells were treated with test compounds at concentrations from 0.3 to 10,000 nM using HP D300 digital dispenser. Twenty-four hours after compound treatment, cell culture media was removed by flicking the plate and tapping the plate against clean paper towel. Immediately 30 μL 1× lysis buffer was supplemented from the kit and the plate was incubated at room temperature on shaker for 30 min. After homogenization by pipetting up and down, 8 μL cell lysate from 96-well cell culture plate was transferred to 384-well small volume white detection plate. 2 μL premixed detection solution was added and the plate was covered with sealer. To prepare the detection solution, d2 conjugated-phospho-RB antibody and Eu-cryptate conjugated phosphor-RB antibody were diluted into detection buffer following manufacturer's instruction. Detection plates were incubated for 4 h at room temperature and read on ClarioStar (BMG Labtech) in TR-FRET mode (665 nM and 620 nM). The TR-FRET ratio (665 nM/620 nM) was plotted against the compound concentration and normalized to DMSO controls. Half maximal inhibition concentration (IC50) values are calculated with a four-parameter logistic fit using GraphPad Prism (version 8; La Jolla, CA).
(In general: In TR-FRET formats the signal depends on donor and acceptor labels being close together.)

For the compound `O=C1CCC(N2C(=O)c3cccc(NCCOCCOCCNS(=O)(=O)N4CCC(Nc5ncc6ccc(=O)n(C7CCCC7)c6n5)CC4)c3C2=O)C(=O)N1` (centres unmarked) [Compound 9, 4-((8-cyclopentyl-7-oxo-7,8-dihydropyrido[2,3-d]-pyrimidin-2-yl)amino)-N-(2-(2-(2-((2-(2,6-dioxopiperidin-3-yl)-1,3-dioxoisoindolin-4-yl)-amino)ethoxy)ethoxy)ethyl)piperidine-1-sulfonamide], the IC50 is 675 nM in assay [1] and 1810 nM in assay [2].

In the case of `CN(CCCOCCCc1cccc2c1C(=O)N(C1CCC(=O)NC1=O)C2=O)S(=O)(=O)N1CCC(Nc2ncc3ccc(=O)n(C4CCCC4)c3n2)CC1` (centres unmarked) [Compound 10, 4-((8-cyclopentyl-7-oxo-7,8-dihydropyrido[2,3-d]-pyrimidin-2-yl)amino)-N-(3-(3-(2-(2,6-dioxo-piperidin-3-yl)-1,3-dioxoisoindolin-4-yl)-propoxy)propyl)-N-methylpiperidine-1-sulfonamide], the results for the IC50 in assay [1] and in assay [2] were 791 nM and 3790 nM, respectively.

Take `O=C1CCC(N2C(=O)c3cccc(CCCOCCOCCNS(=O)(=O)N4CCC(Nc5ncc6ccc(=O)n(C7CCCC7)c6n5)CC4)c3C2=O)C(=O)N1` (centres unmarked) [Compound 11, 4-((8-cyclopentyl-7-oxo-7,8-dihydropyrido[2,3-d]pyrimidin-2-yl)amino)-N-(2-(2-(3-(2-(2,6-dioxopiperidin-3-yl)-1,3-dioxoisoindolin-4-yl)-propoxy)ethoxy)ethyl)piperidine-1-sulfonamide]: the values for the IC50 in assay [1] and in assay [2] were 499 nM and 2060 nM, respectively.

For the compound `O=C1CCC(N2C(=O)c3cccc(NCCOCCOCCOCCNCCCS(=O)(=O)N4CCC(Nc5ncc6ccc(=O)n(C7CCCC7)c6n5)CC4)c3C2=O)C(=O)N1` (centres unmarked) [Compound 25, 4-((15-((4-((8-cyclopentyl-7-oxo-7,8-dihydro-pyrido[2,3-d]pyrimidin-2-yl)amino)piperidin-1-yl)sulfonyl)-3,6,9-trioxa-12-azapentadecyl)-amino)-2-(2,6-dioxopiperidin-3-yl)isoindoline-1,3-dione], the midpoint of inhibition in assay [2], the IC50, lay at 1070 nM.

On to `O=C1CCC(N2C(=O)c3cccc(NC(=O)COCCOCCOCCOCCNS(=O)(=O)N4CCC(Nc5ncc6ccc(=O)n(C7CCCC7)c6n5)CC4)c3C2=O)C(=O)N1` (centres unmarked) [Compound 26, 14-((4-((8-cyclopentyl-7-oxo-7,8-dihydro-pyrido[2,3-d]pyrimidin-2-yl)amino)piperidine)-1-sulfonamido)-N-(2-(2,6-dioxopiperidin-3-yl)-1,3-dioxoisoindolin-4-yl)-3,6,9,12-tetraoxatetradecan-amide], for which half-maximal inhibition in assay [2] (IC50) was put at 6090 nM.

As to `O=C1CCC(N2Cc3cc(N4CCC(Oc5cccc(S(=O)(=O)N6CCC(Nc7ncc8ccc(=O)n(C9CCCC9)c8n7)CC6)c5)CC4)ccc3C2=O)C(=O)N1` (centres unmarked) [Compound 33, 3-(5-(4-(3-((4-((8-cyclopentyl-7-oxo-7,8-dihydro-pyrido[2,3-d]pyrimidin-2-yl)amino)piperidin-1-yl)sulfonyl)phenoxy)piperidin-1-yl)-1-oxoiso-indolin-2-yl)piperidine-2,6-dione], in assay [2], it took 313 nM to reach half-maximal inhibition (IC50).

Take `CC1(O)CCCC1n1c(=O)ccc2cnc(NC3CCN(S(=O)(=O)c4cccc(CN5CCN(c6cc7c(cc6F)C(=O)N(C6CCC(=O)NC6=O)C7=O)CC5)c4)CC3)nc21` (centres unmarked) [Compound 44, 2-(2,6-dioxopiperidin-3-yl)-5-fluoro-6-(4-(3-((4-((8-(2-hydroxy-2-methylcyclopentyl)-7-oxo-7,8-dihydropyrido[2,3-d]pyrimidin-2-yl)amino)-piperidin-1-yl)sulfonyl)benzyl)piperazin-1-yl)-isoindoline-1,3-dione]: the IC50 in assay [2] amounted to 405 nM.

Consider `O=C1CCC(N2Cc3cc(N4CC(Oc5cccc(S(=O)(=O)N6CCC(Nc7ncc8ccc(=O)n(C9CCCC9)c8n7)CC6)c5)C4)ccc3C2=O)C(=O)N1` (centres unmarked) [Compound 74, 3-(5-(3-(3-((4-((8-cyclopentyl-7-oxo-7,8-dihydro-pyrido[2,3-d]pyrimidin-2-yl)amino)piperidin-1-yl)sulfonyl)phenoxy)azetidin-1-yl)-1-oxoisoindolin-2-yl)piperidine-2,6-dione], for which, in assay [2], the IC50 was 100 nM.
